Substitutions are numbered along the chain they refer to. Like-named read-outs stand apart in the source and are kept apart here.

A short description of data set [1]: Rat intravenous pharmacokinetics (volume of distribution, plasma clearance). As to conditions: for clearance: male, Sprague-Dawley, plasma, iv, 3 mg/kg; for rat Vdist: single intravenous dose (3 mg/kg).
Procedure: (§1) To test for volume of distribution, Male Sprague Dawley rats (N=3) are administered a single 3 mg/kg intravenous dose of compound. Multiple plasma samples are collected at time points from 0.08 to 24 hours post-dose. The plasma samples are analyzed by LC/MS/MS to determine the plasma concentrations. Plasma pharmacokinetic calculations are performed to determine the pharmacokinetic parameters including Vdist and plasma clearance (Clp).
Data set [2] has as its target T1, human CRF1 (Homo sapiens, UniProt P34998).
T1 construct: expressed in transfected cells; membranes
T1 sequence (P34998 24-415): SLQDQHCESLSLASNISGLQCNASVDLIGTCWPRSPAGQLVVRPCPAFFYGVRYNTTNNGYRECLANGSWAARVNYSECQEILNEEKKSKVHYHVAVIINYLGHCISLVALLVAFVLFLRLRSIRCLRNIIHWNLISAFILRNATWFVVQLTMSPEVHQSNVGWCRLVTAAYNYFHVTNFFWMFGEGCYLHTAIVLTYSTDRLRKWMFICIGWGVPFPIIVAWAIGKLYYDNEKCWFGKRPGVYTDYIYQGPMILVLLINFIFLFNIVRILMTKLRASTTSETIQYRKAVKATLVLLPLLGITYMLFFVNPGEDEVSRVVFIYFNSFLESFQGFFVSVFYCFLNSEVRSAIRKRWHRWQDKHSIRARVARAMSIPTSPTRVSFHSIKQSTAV
Nature of the data set: CRF1 filter binding assay. As to conditions: HEK-hCRF1 membranes, 125I-sauvagine; read-out: Ki (inhibition constant). As to the method: The limitations of plasmid-based human CRF1 expression, in terms of generating a recombinant cell line with sufficient receptor density to develop a binding assay, are overcome by using a Phoenix retroviral expression system licensed from Stanford. The stable HEK-hCRF1 cell line is used to prepare membranes and binding reactions (200 μl) are set up as follows: 50 μl of ^125I-sauvagine (0.2 nM final), 50 μl compound and 100 μL CRF1 membrane (25 μg/reaction). The reactions are incubated at room temperature for 2 hours and then terminated by filtration through pre-treated FB Millipore glass fiber filter plates (96 well). The plates are wash twice with ice-cold assay buffer (50 mM tris, 12.5 mM NaCl, 1 mM EDTA, 10 mM MgCl2, 0.05% BSA, pH 7.2), air dried over night and counted with 100 μl Microscint 40 in a MicroBeta counter. Non-specific binding (NSB) is determined in the presence of 0.5 μM non-labeled sauvagine. Triplicate determinations are typically run and the median data points plotted by Graph Pad Prism.

Data set [3] in a line: in vivo. The settings on record: male, Sprague-Dawley, rat, iv, 3 mg/kg.
Procedure: as §1
The conditions of data set [4]: male, Sprague-Dawley, in vivo, iv, 3 mg/kg.
Procedure: as §1
Data set [5] addresses T2, binding of ^125I-sauvagine to the cerebellum (Rattus norvegicus, UniProt P35353).
T2 construct: from tissue; host or cells: rat cerebellum
T2 sequence (P35353 24-415): T1 sequence (P34998 24-415) with H6R, S9N, A13T, I16V, M153V, G163A, I209V, Y229H, H356R
Put plainly: In vivo potency assessment using ex vivo binding. The settings on record: oral route, ex vivo binding of 125I-sauvagine to the cerebellum. As to the method: To assess in vivo potency, a compound of the present invention is evaluated using ex vivo binding. Using the procedures as provided in D. R. Gehlert et al., EJP 509: 145-153 (2005), a compound is administered to a rat via the oral route.

For data set [6], the target named is T3, human CRF2 (Homo sapiens, UniProt Q13324).
T3 construct: expressed in transfected cells; membranes
T3 sequence (Q13324 1-411): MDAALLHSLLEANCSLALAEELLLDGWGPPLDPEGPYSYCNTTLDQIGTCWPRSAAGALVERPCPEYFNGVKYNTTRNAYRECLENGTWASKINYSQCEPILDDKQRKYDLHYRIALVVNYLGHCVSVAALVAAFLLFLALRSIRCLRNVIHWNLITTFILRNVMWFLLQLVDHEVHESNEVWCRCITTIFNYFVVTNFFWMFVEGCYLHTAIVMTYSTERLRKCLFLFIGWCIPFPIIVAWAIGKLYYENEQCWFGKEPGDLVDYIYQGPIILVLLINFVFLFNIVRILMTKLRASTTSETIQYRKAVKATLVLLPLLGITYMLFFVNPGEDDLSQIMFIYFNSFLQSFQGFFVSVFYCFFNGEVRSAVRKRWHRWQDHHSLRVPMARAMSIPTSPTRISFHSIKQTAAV
Put plainly: CRF2 filter binding assay. The settings on record: 50 μM compound, HEK-hCRF2 membranes, 125I-sauvagine; read-out: percent inhibition at 50 μM. As to the method:
The limitations of plasmid-based human CRF2 expression, in terms of generating a recombinant cell line with sufficient receptor density to develop a binding assay, are overcome by using a Phoenix retroviral expression system licensed from Stanford. The stable HEK-hCRF2 cell line is used to prepare membranes and binding reactions (200 A1) are set up as follows: 50 ul of ^125I-sauvagine (0.2 nM final concentration), 501 compound and 100 μl CRF2 membrane (25 μg/reaction). The reactions are incubated at room temperature for 2 hours and then terminated by filtration through pre-treated FB Millipore glass fiber filter plates (96 well). The plates are washed twice with ice-cold assay buffer (50 mM tris, 12.5 mM NaCl, 1 mM EDTA, 10 mM MgCl2, 0.05% BSA, pH 7.2), air dried over night and counted with 100 μl Microscint 40 in a MicroBeta counter. Non-specific binding (NSB) is determined in the presence of 0.5 μM non-labeled sauvagine. Alternatively, compounds are evaluated using a Scintillation Proximity assay. […] Bound radioactivity is assessed using a Wallac Trilux scintillation counter. Binding is assessed typically using triplicate determinations and the median data points plotted by Graph Pad Prism. […]

On to `CCCCN(CC)c1nc(C)nc2c1c(C)cn2-c1c(C)cc(C)cc1C` [CP154526], for which, in data set [1], the clearance amounted to 83 mL/min/kg and the “rat Vdist” value worked out at 114 L/kg.

As to `CCC(CC)c1cc(C)nn2c(-c3sc4ccc(F)cc4c3C)c(C)nc12` [Example 1, 8-(1-ethyl-propyl)-2,6-dimethyl-3-(5-fluoro-3-methyl-benzo[b]thiophen-2-yl)-imidazo[1,2-b]pyridazine], in data set [1], the clearance was determined as 9 mL/min/kg and the “rat Vdist” value came out at 8 L/kg. Besides, in data set [2], the Ki is 16.3 nM.

Consider `CCC(CC)c1cc(C)nn2c(-c3sc4ccccc4c3C)c(C)nc12` [Example 2, 8-(1-ethyl-propyl)-2,6-dimethyl-3-(3-methyl-benzo[b]thiophen-2-yl)-imidazo[1,2-b]pyridazine], for which the clearance in data set [3] was 12 mL/min/kg. The “rat Vdist” value in data set [4] came out at 10 L/kg.

`CCC(CC)c1cc(C)nn2c(-c3cc4cc(F)ccc4n3C)c(C)nc12` [Example 8, 8-(1-ethyl-propyl)-2,6-dimethyl-3-(5-fluoro-1-methyl-indol-2-yl)-imidazo[1,2-b]pyridazine] had a clearance in data set [3] of 29 mL/min/kg. Also, in data set [4], the “rat Vdist” value came to 17 L/kg.

In data set [3], `CCC(CC)c1cc(C)nn2c(-c3cc4ccc(Cl)cc4n3C)c(C)nc12` [Example 34, 3-(6-chloro-1-methyl-1H-indol-2-yl)-8-(1-ethyl-propyl)-2,6-dimethyl-imidazo[1,2-b]pyridazine] displayed a clearance of 14 mL/min/kg. In addition, the ED50 in data set [5] is 5.5 mg/kg. Moreover, the “rat Vdist” value in data set [4] was determined as 15 L/kg.

`CCC(CC)c1cc(C)nn2c(-c3c(C)oc4c(C(C)(C)O)cccc34)c(C)nc12` [Example 88, 2-{3-[8-(1-ethyl-propyl)-2,6-dimethyl-imidazo[1,2-b]pyridazin-3-yl]-2-methyl-benzofuran-7-yl}-propan-2-ol]: the Ki in data set [2] was 19.2 ± 4.8 nM. In addition, the inhibition at 50 µM in data set [6] came to 27 ± 3%.

Consider `CCCN(CCC)c1cc(C)nc2c(-c3cnc(N(C)C)cc3C)c(C)nn12` [NBI30775], for which the “rat Vdist” value in data set [1] turned out to be 76 L/kg.

The clearance is the rate of elimination divided by the concentration. A lower clearance goes with a low capacity for elimination. As a reminder, the Ki is the equilibrium dissociation constant of an inhibitor or competing ligand from its target. What is called ED50 is the dose that gives a 50% effect, or the effect in half of the subjects. What is called inhibition is how much of the control response was suppressed.

Source of the values: patent US7557103B2, “Imidazopyridazine compounds” (Eli Lilly and Company, priority 2005, dated 2009).
